Patent publication US11911436B2, “Amphiphilic peptide chaperones and methods of use” (priority 2021, dated 2024)
Marks after values point to notes of the source that are not given here.

Legend:
[1] = tested on: wild-type C. elegans (N2); assay: C. elegans N2 lifespan assay at 20° C. with peptide feeding; assay type: in vivo; settings: N2 worms
Description: A schematic of an assay of C. elegans N2 lifespan at 20° C. is shown (FIG. 10A). This involved peptide treatment (50 μg) with E. coli OP50 as a food source. Plates were changed every second day with 50 μg fresh peptide and OP50. Scoring of survival was done every day to the last day of survival. 50 mM FUdR was added in experimental plates between D1 and D5 to prevent progeny production.

human red blood cells = assay: Melittin-induced hemolysis of human RBC; assay type: cell-based; settings: 2% human RBC, room temperature 30 min, OD 540 nm
Description: Hemolysis of human red blood cells with melittin was measured with varying concentrations of CPAMC (FIG. 3). To 0.3 mL of 2% human RBC (red blood cell) suspension was added 2 μM melittin and/or peptides taken in 0.7 mL of PBS. The tubes were incubated at room temperature for 30 min, centrifuged, and the OD of the supernatant was measured at 540 nm. PBS and PBS containing 0.1% TritonX-100 served as negative and positive control, respectively.
The protective effect of Myr-CPAMC peptide of human red blood cells (RBC) from melittin-induced hemolysis was also examined. To 0.3 mL of 2% human RBC suspension was added to melittin and/or peptide taken in 0.7 mL of PBS. The tubes were incubated at room temperature for 30 min, centrifuged (FIG. 5A) and the OD of the supernatant was measured at 540 nm. PBS and PBS containing 0.1% TritonX-100 served as negative and positive control, respectively.

CL2006 C. elegans = assay: CL2006 lifespan at 20° C. (paralysis and death model); assay type: in vivo; settings: CL2006 worms, 50 μg peptide
Description: CL2006 C. elegans were used as a paralysis and death model. Worms are maintained at 15° C., with adult onset paralysis induced at 20° C.
50 μg CPAMC and CPPRAMC peptide or controls were added to CL2006 worms, and the fraction left alive over time at the restrictive temperature of 20° C. was quantified (FIG. 12). […] (FIG. 12).

[2] = tested on: C. elegans wild-type (N2 strain); assay: Paraquat (PQ)-induced oxidative stress survival; assay type: in vivo; settings: five-day old N2 worms, 50 μg peptide 24 hours, 50 mM PQ
Description: Five-day old N2 worms were pretreated with 50 μg peptide for 24 hours and subjected to 50 mM PQ. The survival of the worms was monitored every hour under a microscope until the end of survival. […] The median survival value (50% survival) in CPPRAMC, CPAMC, and CP-SC (control) peptides corresponds to 9.6 h, 8.9 h and 5.9 h, respectively, as compared to vehicle control (5.5 h) (FIG. 14).

[3] = tested on: human primary lens epithelial (HLE-1°) cells; assay: Melittin cytotoxicity, cell viability imaging; assay type: cell-based; settings: 1 μM melittin, 45 min
Description: The ability of CPAMC peptide to block the cytotoxic action of melittin on human primary lens epithelial (HLE-1°) cells was investigated. Cell viability imaging was performed with dead cells identified by fluorescent staining. HLE-1° cells cultured on a 96-well plate were treated with 1 μM melittin and/or different concentrations of CPAMC peptide for 45 min. At the end of the incubation, cell viability imaging was done using the EarlyTox cell integrity kit (Molecular Devices, Sunnyvale, Calif.) (FIG. 4A). The percentage of dead cells in each sample was calculated from the live/dead cell imaging data using the Softmax Pro software (FIG. 4B).

C. elegans (N2) worms = assay: Juglone (JG)-induced oxidative stress survival; assay type: in vivo; settings: N2 worms at day 5, 50 μg peptide 24 h, 50 μM JG
Description: N2 worms at day 5 pretreated for 24 h with 50 μg CPAMC or CP-SC (control) and subjected to 50 μM JG. Survival was checked every hour under a microscope until the end of survival. The median survival value in CPAMC and CP-SC (control) peptides corresponds to 7.3 h and 5.9 h, respectively, compared to vehicle control (4.9 h) (FIG. 15).

C. elegans (N2 strain) = assay: Thermotolerance assay, continuous heat stress at 35° C.; assay type: in vivo; settings: N2 worms
Description: The lifespan of wild type C. elegans with and without peptide at a restrictive temperature was measured.
A schematic representation of the thermotolerance assay used is shown (FIG. 11A). 24 hours of 50 μg peptide treatment at 20° C. of a synchronized population of wild type C. elegans was followed by a continuous heat stress at 35° C. Worms were scored every two hours for 24 hours for survival.

ARPE-19 cells = assay: Sodium iodate-induced oxidative stress, DCFH-DA staining; assay type: cell-based; settings: 7.5 mM sodium iodate, 24 hrs
Description: The ability of CPPRAMC and CPAMC to suppress sodium iodate-induced oxidative stress in ARPE-19 cells was also assessed. ARPE-19 cells seeded on a 96-well plate were treated with 7.5 mM of sodium iodate and peptides in 100 μl of serum-free DMEM/F12 media for 24 hrs. The cells were then stained with 10 μM DCFH-DA for 30 min at 37° C. in the dark and the cells were observed under the EVOS FL Auto2 imaging system (Thermo Fisher Scientific, Waltham, Mass., USA) with 10× magnification.

CL4176 C. elegans = assay: CL4176 Aβ-induced paralysis and survival assay; assay type: in vivo; settings: CL4176 worms
Description: CL4176 C. elegans is a temperature sensitive strain. Worms are maintained at 15° C. and shifted to increased temperature to cause Aβ-induced paralysis in adults. This has been used as a C. elegans model of Alzheimer's disease.
A scheme of a paralysis assay with CL4176 worms is shown (FIG. 13A). Peptide treatment began on CL4176 embryos and continued throughout the experiment. After 2 days at 15° C., the temperature was increased to the restrictive temperature of 25° C. Worms were scored for survival and paralysis.
Example images of paralyzed and non-paralyzed worms are shown (FIG. 13C).

[4] = tested on: HEK293 IL-6 reporter cells; assay: IL-6 signaling, STAT3-stimulated SEAP reporter; assay type: cell-based; settings: human recombinant IL-6 and peptides, 1 hr
Description: HEK293 IL-6 reporter cells were treated with human recombinant IL-6 and the peptides for 1 hr. The STAT3-stimulated SEAP activity in the culture supernatant was measured using QUANTI-Blue solution (InvivoGen) (FIG. 19B).

## CH3-LFVIFLVHFSPGRDEDKDEK-NH2 (Me-LFVIFLVHFSPGRDEDKDEK-NH2) [CPAMC, Cell-penetrable, amphiphilic mini chaperone synthesized with L-amino acids]
[1]; 50 μg peptide with E. coli OP50
  Median Lifespan (Days ± SE): 18.23 ± 0.25 days
[1]; 50 μg peptide, vs control
  Increase in median survival (%): 36* %
Human red blood cells
  hemolysis by melittin in presence of peptide: Hemolysis decreased as concentration of CPAMC increased
CL2006 C. elegans
  Median survival ± SE (days at 20° C.): 7.7 ± 0.28 days
CL2006 C. elegans; vs control
  % increase in survival: 11.6%
[2]
  median survival value (50% survival): 8.9 h
[3]
  percentage of dead cells with melittin and peptide: blocks the cytotoxic action of melittin
C. elegans (N2) worms
  median survival value: 7.3 h
C. elegans (N2 strain); 35° C., 50 μg peptide, vs control
  % increase in survival: 31* %
C. elegans (N2 strain); 24 hours 50 μg peptide at 20° C., then 35° C.
  Median survival ± SE (hours at 35° C.): 11.0 ± 0.4 h
ARPE-19 cells
  oxidative stress by DCFH-DA staining: reduce or block the oxidative stress induced by sodium iodate
CL4176 C. elegans; 25° C.
  delay of Aβ-induced paralysis: delay of CL4176 worm paralysis compared to controls
CL4176 C. elegans; 25° C., vs control
  % increase in median survival: 12%
CL4176 C. elegans; 2 days at 15° C., then 25° C.
  Median survival Hours ± SE: 49.6 ± 0.5 h
[4]
  IL-6 signaling (STAT3-stimulated SEAP activity): IL-6 signaling is also suppressed
